In patent US20080139458A1, “Methods of Treatment For Injured or Diseased Joints” (priority 2004, published 2008):
Values joined by “and” are separate entries in the source; they are usually repeats but may differ in a detail not shown here. Equal entries are not always repeated. Where two headings read alike, the source gives them in different places. Peptide text beside a SMILES is read from it. * marks the point of attachment. Cbz = O=C(OCc1ccccc1)*; CH2F = FC*

Key:
[1] = system: pooled knee joint synovitis (KJS) synovial fluid (SF) aspirates supplemented with purified human lubricin; assay type: biochemical; conditions: for Change in coefficient of friction Δμ ± S.D.: 37° C., E-64 10 μM, Z-LLL-FMK 20 μM, PMSF 25 μM, EDTA 10 mM, Lubricin = no inhibitor; for Lubricating ability compared to controls without enzyme inhibitors: KJS SF at 24, 48, and 96 hours, P<0.001
Protocol: (§1) The boundary lubricating abilities of protease-treated human lubricin and BSF were measured using a friction apparatus as reported by Davis et al., J. Biomech. Eng. 101:185-192, 1979. Lubricant (200 μL) was applied between a bearing of latex and a ring of polished glass with a contact area of 1.59 cm^2. The latex was oscillated, under a pressure of 0.35×10^6 N/m^2, against the polished glass with an entraining velocity of 0.37 mm/sec. The bearing system was axially loaded within a gimbals system free to rotate around two perpendicular horizontal axes. The friction apparatus recorded displacements of the gimbals system around the vertical loading axis through a linear displacement voltage transducer, where the output was directly proportional to the frictional torque (F). A bearing load of 70 newtons (N) was related to the coefficient of friction (μ) via Amonton's law, F=μN.
(§2) The μ of the lubricant was recorded at room temperature and was preceded by a baseline measurement of μ with normal saline (NS). Lubrication was manifested by a reduction in μ by the lubricant relative to that of NS. Negative Δμ (−Δμ) values indicate lubrication whereas positive Δμ (+Δμ) indicate friction. Addition of 200 μL of lubricant was followed by bringing the bearing surfaces close enough so that the solution wet both surfaces. After 5 min for equilibration, the latex-coated bearing was brought to rest on the glass as it was oscillating. Voltage measurements were recorded at 1, 3, and 5 min. After 5 min, the surfaces were separated for 2 min and then brought back together for three additional 5 min session. The 3 and 5 min μ values of the last two 5 min session were recorded and averaged, and data were later combined with another duplicate experiment providing 8 distinct measurements of μ.
(§3) The SF aspirates from patients diagnosed with a Noyes criteria grade III or IV OA (n=60), with RA (n=20), or with KJS (n=23) were pooled in equal proportions. […] The lubricin-supplemented pooled OA, RA, and KJS SF aspirates were treated at 37° C. and sampled after 24, 48, and 96 hours. The friction analysis of the sampled SF was conducted as described above. Normal human SF was obtained from cartilage allograft donors and was utilized as a control.
(§4) The treatments were performed at 37° C., and SF was sampled at 24, 48, and 96 hours post-treatment. The in vitro friction assay of sampled SF was performed as described above.

[2] = system: pooled rheumatoid arthritis (RA) synovial fluid (SF) aspirates supplemented with purified human lubricin; assay type: biochemical; conditions: for Change in coefficient of friction Δμ ± S.D.: 37° C., E-64 10 μM, Z-LLL-FMK 20 μM, PMSF 25 μM, EDTA 10 mM, Lubricin = no inhibitor
Protocol: as §1, §2, §3, §4

[3] = at 24, 48, and 96 hours, P<0.001

Compound	Change in coefficient of friction Δμ ± S.D. ([1]; 0 hrs)	Change in coefficient of friction Δμ ± S.D. ([1]; 24 hrs)	Change in coefficient of friction Δμ ± S.D. ([1]; 48 hrs)	Change in coefficient of friction Δμ ± S.D. ([1]; 96 hrs)	Lubricating ability compared to controls without enzyme inhibitors [1]	average increase in Δμ ([1]; at 24 hours, KJS SF)	average increase in Δμ ([1]; at 48 hours, KJS SF)	average increase in Δμ ([1]; at 96 hours, KJS SF)	Change in coefficient of friction Δμ ± S.D. ([2]; 0 hrs)	Change in coefficient of friction Δμ ± S.D. ([2]; 24 hrs)	Change in coefficient of friction Δμ ± S.D. ([2]; 48 hrs)	Change in coefficient of friction Δμ ± S.D. ([2]; 96 hrs)	Δμ compared to lubricin-supplemented pooled RA SF aspirates [2, 3]	average increase in Δμ ([2]; at 24 hours, RA SF)	average increase in Δμ ([2]; at 48 hours, RA SF)	average increase in Δμ ([2]; at 96 hours, RA SF)	average increase in Δμ [1]	Δμ compared to lubricin-supplemented pooled KJS SF aspirates [1]	average increase in Δμ [2]	Δμ compared to lubricin-supplemented pooled RA SF aspirates [2]
CC(C)C[C@H](NC(=O)[C@H]1O[C@@H]1C(=O)O)C(=O)NCCCCN=C(N)N (relative stereo) [E-64, L-trans-epoxysuccinyl-leucyl-amido-(4-guanidino)-butane]	−0.059 ± 0.004	−0.042 ± 0.005	−0.039 ± 0.007	−0.034 ± 0.002	preserved lubricating ability	32.7%	38.5%	42.4%	−0.060 ± 0.002	−0.053 ± 0.004	−0.024 ± 0.002	−0.014 ± 0.004	significant decrease in Δμ	11.7%	60.0%	76.7%				
O=C(O)CN(CCN(CC(=O)O)CC(=O)O)CC(=O)O [EDTA]																	50.0% and 80.0% and 85.0%	significant (P<0.01) decrease in Δμ	90.0% and 88.3% and 128.3%	significant decrease in Δμ
O=S(=O)(F)Cc1ccccc1 [PMSF, phenylmethanesulfonyl fluoride]	−0.060 ± 0.001	−0.033 ± 0.006	−0.030 ± 0.005	−0.027 ± 0.005	preserved lubricating ability	45.0%	50.0%	55.0%	−0.060 ± 0.002	−0.009 ± 0.009	−0.008 ± 0.004	−0.009 ± 0.001	significant decrease in Δμ	85.0%	86.3%	85.0%				
CC(C)C[C@H](NC(=O)[C@H](CC(C)C)NC(=O)[C@H](CC(C)C)NC(=O)OCc1ccccc1)C(=O)CF [Z-LLL-FMK, Z-Leu-Leu-Leu-fluoromethyl ketone] (Cbz-Leu-Leu-Leu-CH2F)	−0.060 ± 0.002	−0.035 ± 0.002	−0.031 ± 0.003	−0.028 ± 0.002	preserved lubricating ability	41.7%	48.3%	53.3%	−0.060 ± 0.002	−0.049 ± 0.002	−0.019 ± 0.001	−0.005 ± 0.003	significant decrease in Δμ	18.3%	68.3%	91.7%				
